In PMC6273978, “Synthesis and Pharmacological Evaluation of Novel Pleuromutilin Derivatives with Substituted Benzimidazole Moieties” (Molecules, 2016) one finds MIC, zone of inhibition and GI50 data, which are given here for 1 compound.

≈ marks a conversion by molar mass, not a printed value.

Test [1] relates to Escherichia coli (E. coli). Put plainly: MIC testing, agar dilution method. The format is cell-based. The note with it: 36.5 °C, 24–48 h. The essentials:
(§1)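 Agar dilution per NCCLS: twofold serial dilutions (11 steps, down to 0.625 µg/mL) were mixed into Mueller-Hinton agar. 10 µL spots of ~10^5–10^6 CFU/mL inoculum were applied, and plates were incubated at 36.5 °C for 24–48 h in triplicate. MIC was the read-out, with tiamulin fumarate as reference.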

Test [2] concerns Methicillin-resistant Staphylococcus aureus (MRSA). Put plainly: MIC testing, agar dilution method. The format is cell-based. The note with it: 36.5 °C, 24–48 h. In a few lines:
as §1
For orientation: In agar dilution, organisms are placed on agar that contains the substance at set levels.

The subject of test [3] is Staphylococcus aureus (S. aureus). The test is described as follows: MIC testing, agar dilution method. The test is classed as cell-based. As to conditions: 36.5 °C, 24–48 h. The essentials: as §1
For test [4], the system named is Staphylococcus haemolyticus (S. haemolyticus). The test is described as follows: MIC testing, agar dilution method. The test is classed as cell-based. As to conditions: 36.5 °C, 24–48 h. The essentials: as §1
Test [5] concerns Staphylococcus vitulinus (S. vitulinus). The test is described as follows: MIC testing, agar dilution method. The test is classed as cell-based. As to conditions: Mammaliicoccus vitulinus, 36.5 °C, 24–48 h. The essentials:
as §1

Test [6] deals with Staphylococcus warneri (S. warneri). The test is described as follows: MIC testing, agar dilution method. The test is classed as cell-based. The note with it: 36.5 °C, 24–48 h. The essentials: as §1
Another test concerns E. coli. The test is described as follows: Oxford cup assay, zone of inhibition. The test is classed as cell-based. As to conditions: Escherichia coli. The essentials: (§2)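 Inocula in 0.9% saline adjusted to McFarland standard were spread on nutrient agar; compounds at 320 and 160 µg/mL were added to Oxford cups on the agar surface. Inhibition zones were measured after 24–36 h at 37 °C, in triplicate.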

For test [7], the system named is MRSA. Put plainly: Oxford cup assay, zone of inhibition. The test is classed as cell-based. The note with it: Staphylococcus aureus. The essentials: as §2
Test [8] deals with S. aureus. The test is described as follows: Oxford cup assay, zone of inhibition. The format is cell-based. As to conditions: Staphylococcus aureus. The essentials: as §2
The subject of the next test is S. haemolyticus. Put plainly: Oxford cup assay, zone of inhibition. The format is cell-based. As to conditions: Staphylococcus haemolyticus. In a few lines: as §2
Another test has as its system S. warneri. The test is described as follows: Oxford cup assay, zone of inhibition. The test is classed as cell-based. The note with it: Staphylococcus warneri. In a few lines:
as §2

For the next test, the system named is S. vitulinus. The test is described as follows: Oxford cup assay, zone of inhibition. The format is cell-based, Staphylococcus vitulinus. As to conditions: Mammaliicoccus vitulinus. In a few lines:
as §2

Test [9] deals with MRSA. The test is described as follows: Inhibition of short-term bacterial growth (absorbance at 450 nm). As to conditions: Staphylococcus aureus, 3.5 h incubation, Mueller-Hinton broth. The test is classed as cell-based. The method, then: (§3) Compound 3, being the best antibacterial derivative, was chosen for further evaluation on its antibacterial effect to inhibit short-term S. aureus and MRSA growth (Figure 2). This includes the GI50 of tiamulin fumarate for S. aureus and MRSA.
(§4) The inhibition activities of test compounds were evaluated by measuring the absorbance of the bacterial suspension. In brief, inoculums were prepared from blood slants and adjusted to approximately 10^6 CFU/mL in Muellere-Hinton broth. The 0.0625, 0.125, 0.25, 0.5, 1, and 2 µM of tested compounds were prepared and added to the prepared inoculums. A sample of inoculum with no compound was used as control. The absorbance of bacterial suspension at 450 nm was measured using an UV spectrophotometer after 3.5 h of incubation, and the inhibition was calculated as 1 − (A^P/A^0), where A^p and A^0 are the absorbance of bacterial suspension in the presence and absence of compounds, respectively. The same procedure was independently repeated in triplicate.

The test system of test [10] is S. aureus. The test is described as above. The note with it: Staphylococcus aureus, 3.5 h, read-out: GI50 S. aureus growth. The format is cell-based. Here is the method: as §3, §4

In general, MIC refers to the least concentration at which growth counts as inhibited. The low end stands for a more susceptible organism, the high end for a less susceptible organism. As a reminder, the zone of inhibition is the extent of the growth-free halo in a diffusion test. A lower zone of inhibition goes with a weaker effect on the plate. The term GI50 denotes the concentration that inhibits growth by half. For `C=C[C@]1(C)C[C@@H](OC(=O)CSc2nc3ccc(N)cc3[nH]2)[C@]2(C)[C@H](C)CC[C@]3(CCC(=O)[C@H]32)[C@@H](C)[C@@H]1O` [Compound 3, 14-O-((5-Amino-benzimidazole-2-yl)thioacetyl) Mutilin], the minimal inhibitory concentration (MIC) in test [1] is 10 µg/mL (≈ 19 µM); in test [2], 0.156 µg/mL (≈ 0.297 µM); in test [3], 0.156 µg/mL (≈ 0.297 µM); in [4], 0.156 µg/mL (≈ 0.297 µM); in [5], 0.156 µg/mL (≈ 0.297 µM); in test [6], 0.156 µg/mL (≈ 0.297 µM). Moreover, the zone of inhibition at 160 µg/mL came out at 21.4 mm in the test with E. coli (160 µg/mL); 25.4 mm in the test on MRSA [7] (160 µg/mL); 27.3 mm in the test with S. aureus [8] (160 µg/mL); 30.3 mm in the test with S. haemolyticus (160 µg/mL); 28 mm in the test on S. warneri (160 µg/mL); 25.5 mm in the test on S. vitulinus (160 µg/mL). Besides, the zone of inhibition at 320 µg/mL in the test on E. coli (320 µg/mL) stood at 25.5 mm; with MRSA [7] (320 µg/mL), 30.6 mm; in the test with S. aureus [8] (320 µg/mL), 29.6 mm; in the test with S. haemolyticus (320 µg/mL), 33 mm; in the test on S. warneri (320 µg/mL), 32.3 mm; in the test on S. vitulinus (320 µg/mL), 29.6 mm. Further, the concentration for 50% growth inhibition (GI50) in the test with MRSA [9] worked out at 175 nM; in the test with S. aureus [10], 98.7 nM.
